Assay results published in patent US9481910B2, “Methods and compositions for the detection of drug resistant BRAF isoforms” (MEMORIAL SLOAN-KETTERING CANCER CENTER, priority 2011, dated 2016).
Entries after “also recorded” stand apart in the source; their conditions may differ.

What was measured:
[1] = tested on: PLX4032-resistant SKMEL-239 clones; assay: Sensitivity of PLX4032-resistant SKMEL-239 clones to MEK inhibitor (5-day proliferation, pMEK/pERK dose-response); format: cell-based, human; details: all five resistant clones; slightly higher doses than in the parental cell line
Description: (§1) For proliferation assays, cells were plated in 6-well plates, and 24 hours later were treated with varying concentrations of inhibitors, or vehicle control, as indicated. IC50 values were calculated using Graph Pad Prism v.5. For cell cycle and apoptosis studies, cells were seeded in 6-well dishes the day prior to drug treatment. For analysis, both adherent and floating cells were harvested and stained with ethidium bromide as described previously 21.

p61 BRAF(V600E) [2] = biological target: T1, p61 BRAF(V600E) (Homo sapiens, UniProt P15056, DEL169-380/V600E); assay: ERK signaling in SKMEL-239 or HT-29 cells ectopically expressing p61 BRAF(V600E); format: cell-based; details: 1 hour
Description: (§2) The BRAF inhibitor, PLX403219 (vemurafenib) was obtained from Plexxikon Inc. PD0325901 was synthesized in the MSKCC Organic Synthesis Core Facility. Flag-tagged BRAF constructs have been described previously4. All other plasmids were created using standard cloning methods, with pcDNA3.1 (Invitrogen) as a vector. Mutations were introduced using the site-directed Mutagenesis Kit (Stratagene). For transfection studies, cells were seeded on 35 mm or 100 mm plates and transfected the following day using Lipofectamine 2000 (Invitrogen). Cells were collected 24 hours later for subsequent analysis. cDNA Preparation and PCR.

[3] = tested on: HT-29 cells (colorectal; BRAF(V600E)) expressing HER2 (V654E); assay: MEK/ERK in HT-29 cells transfected with activated HER2 (V654E); format: cell-based; details: various concentrations, 1 h
[4] = tested on: HT-29 cells (colorectal; BRAF(V600E)) expressing NRAS(G12V); assay: MEK/ERK in HT-29 cells transfected with HA-tagged NRAS(G12V); format: cell-based; details: various concentrations, 1 h
[5] = tested on: wild-type (+/+), BRAF−/− or CRAF−/− MEFs; assay: MEK/ERK activation in wild-type, BRAF knockout or CRAF knockout MEFs; format: cell-based; details: indicated concentrations, 1 h
p61 BRAF(V600E/R509H) = p61 BRAF(V600E/R509H) (Homo sapiens, UniProt P15056, DEL169-380/R509H/V600E); assay: ERK signaling in 293H cells expressing p61 BRAF(V600E/R509H); format: cell-based; details: 2 μM for 1 hour
Description: as §2

p61 BRAF(V600E) [6] = biological target: T1, p61 BRAF(V600E); assay: In vitro kinase assay of immunoprecipitated V5-tagged p61 BRAF(V600E), inactive MEK(K97R) as substrate; format: biochemical; details: 200 μM ATP, 30° C., 20 min
Description: V5-tagged full length BRAF(V600E) or V5-tagged p61 BRAF(V600E) were ectopically expressed in 293H cells. 24 hours later, cells were harvested, lysed and BRAF was immunoprecipitated using a V5 antibody. […] Kinase activity was estimated by western blot for pMEK.
Immunoprecipitations and kinase assays. Cells were lysed in lysis buffer (50 mM Tris, pH7.5, 1% NP40, 150 mM NaCl, 10% glycerol, 1 mM EDTA) supplemented with protease and phosphatase inhibitor cocktail tablets (Roche). Immunoprecipitations were performed at 4° C. for 4 h, followed by three washes with lysis buffer and, in cases of subsequent kinase assay, one final wash with kinase buffer (25 mM Tris, pH 7.5, 10 mM MgCl2). […] The kinase reaction was terminated by adding sample buffer and boiling. Kinase activity was determined by immunoblotting for pMEK.

BRAF(V600E/R509H) = BRAF(V600E/R509H) (Homo sapiens, UniProt P15056, R509H/V600E); assay: ERK signaling in 293H cells expressing the dimerization mutant BRAF(V600E/R509H); format: cell-based; details: 2 μM for 1 hour
Description: as §2

SKMEL-239 cells = assay: Cell cycle and cell death (sub-G1 peak by FACS) in SKMEL-239 parental cells and resistant clones; format: cell-based, human
Description: as §1

[7] = tested on: ERK signaling (pMEK, pERK); assay: ERK signaling (pMEK/pERK Western blot) in SKMEL-239 parental cells and PLX4032-resistant clones
Description: Western blotting and receptor tyrosine kinase (RTK) arrays. Western blot analysis was performed as previously described13. The following antibodies were used: p217/p221-MEK (pMEK), p202/p204-ERK (pERK), MEK, ERK, (Cell Signaling), V5 tag (Invitrogen), BRAF, cyclin Flag tag, β-actin (Sigma).

p61 BRAF(V600E) [8] = biological target: T1, p61 BRAF(V600E); assay: ERK signaling in 293H cells ectopically expressing p61 BRAF(V600E); format: cell-based; details: 293H cells expressing p61 BRAF(V600E), 2 μM for 1 hour
Description: as §2

[9] = parental SKMEL-239, 2 μM PLX4032

T1 sequence (P15056 with tags, fused parts or gaps DEL169-380/V600E): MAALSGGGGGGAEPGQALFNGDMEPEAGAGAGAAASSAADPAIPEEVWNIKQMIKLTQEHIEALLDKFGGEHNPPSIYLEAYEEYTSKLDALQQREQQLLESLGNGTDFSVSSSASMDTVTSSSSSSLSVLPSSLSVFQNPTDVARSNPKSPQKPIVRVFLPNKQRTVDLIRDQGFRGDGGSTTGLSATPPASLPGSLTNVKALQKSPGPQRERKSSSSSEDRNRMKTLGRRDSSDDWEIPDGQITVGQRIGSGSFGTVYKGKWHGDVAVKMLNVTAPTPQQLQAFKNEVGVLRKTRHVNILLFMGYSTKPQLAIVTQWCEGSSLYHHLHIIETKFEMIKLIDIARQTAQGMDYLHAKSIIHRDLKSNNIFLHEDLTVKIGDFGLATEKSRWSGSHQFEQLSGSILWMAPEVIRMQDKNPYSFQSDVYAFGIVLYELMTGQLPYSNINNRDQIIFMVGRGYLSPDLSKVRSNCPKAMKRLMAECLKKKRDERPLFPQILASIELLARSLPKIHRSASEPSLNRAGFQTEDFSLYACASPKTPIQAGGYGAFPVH
Sequence of BRAF(V600E/R509H) (P15056 whole entry R509H/V600E): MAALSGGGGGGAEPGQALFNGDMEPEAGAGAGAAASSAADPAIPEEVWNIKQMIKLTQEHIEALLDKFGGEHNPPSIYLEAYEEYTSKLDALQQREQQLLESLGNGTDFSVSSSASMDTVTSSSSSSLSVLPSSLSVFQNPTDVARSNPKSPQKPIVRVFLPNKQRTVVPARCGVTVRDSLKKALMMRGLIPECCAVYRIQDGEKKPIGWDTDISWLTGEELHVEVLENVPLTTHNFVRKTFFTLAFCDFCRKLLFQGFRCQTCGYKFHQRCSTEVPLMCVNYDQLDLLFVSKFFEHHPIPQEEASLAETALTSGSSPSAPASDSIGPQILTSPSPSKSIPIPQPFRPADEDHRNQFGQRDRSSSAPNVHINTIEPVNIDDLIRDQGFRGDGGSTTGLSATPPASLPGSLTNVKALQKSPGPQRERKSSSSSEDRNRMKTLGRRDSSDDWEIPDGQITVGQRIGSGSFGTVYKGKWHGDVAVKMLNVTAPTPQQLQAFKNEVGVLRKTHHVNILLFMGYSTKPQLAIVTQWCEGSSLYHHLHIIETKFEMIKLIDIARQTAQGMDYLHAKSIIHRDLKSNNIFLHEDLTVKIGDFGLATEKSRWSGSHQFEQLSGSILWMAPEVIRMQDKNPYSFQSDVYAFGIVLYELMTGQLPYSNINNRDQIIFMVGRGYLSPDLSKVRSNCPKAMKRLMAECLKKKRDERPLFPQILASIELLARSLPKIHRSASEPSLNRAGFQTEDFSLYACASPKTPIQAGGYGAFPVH
Sequence of p61 BRAF(V600E/R509H) (P15056 with tags, fused parts or gaps DEL169-380/R509H/V600E): as the sequence (P15056 with tags, fused parts or gaps DEL169-380/V600E) above, with R297H counted along it

SMILES | sensitivity to the MEK inhibitor [1] | inhibition of ERK signaling (p61 BRAF(V600E) [2]; HT-29 cells expressing p61 BRAF(V600E)) | inhibition of ERK signaling (p61 BRAF(V600E) [2]; parental SKMEL-239 cells expressing p61 BRAF(V600E)) | sensitivity of MEK/ERK to RAF inhibitor [3] | sensitivity of MEK/ERK to RAF inhibitor [4] | MEK/ERK activation [5] | inhibition of ERK signaling (p61 BRAF(V600E/R509H)) | inhibition of kinase activity in vitro (pMEK Western blot) (p61 BRAF(V600E) [6]) | sensitivity of ERK signaling (BRAF(V600E/R509H)) | cell death (sub-G1 peak by FACS) (SKMEL-239 cells; five PLX4032-resistant SKMEL-239 clones) | cell cycle effect (SKMEL-239 cells; [9]) | cell death (sub-G1 peak by FACS) (SKMEL-239 cells; parental SKMEL-239 cells) | sensitivity of ERK signaling to the drug ([7]; PLX4032-resistant SKMEL-239 cells) | IC50 for pMEK inhibition relative to the parental cell line ([7]; SKMEL-239 C3 clone, 1 hour) | pMEK IC50 relative to the parental clone ([7]; SKMEL-239 C5 clone, 1 hour) [fold] | inhibition of ERK signaling [7, 9] | sensitivity of ERK signaling (pMEK, pERK) (p61 BRAF(V600E) [8])
O=C(NOC[C@H](O)CO)c1ccc(F)c(F)c1Nc1ccc(I)cc1F [PD032590113] | retained sensitivity | – | – | – | – | – | – | – | – | – | – | – | – | – | – | – | –
CCCS(=O)(=O)Nc1ccc(F)c(C(=O)c2c[nH]c3ncc(-c4ccc(Cl)cc4)cc23)c1F [PLX4032] | – | failure of PLX4032 to effectively inhibit ERK signaling | failure of PLX4032 to effectively inhibit ERK signaling | insensitive | insensitive | MEK/ERK activation does not require BRAF | inhibited | can be inhibited in vitro | remained sensitive | not in the five resistant clones | accumulation of cells in G1 | significant induction of cell death; also recorded: induced cell death | decreased sensitivity | more than 100 fold | 4.5 | effectively inhibits ERK signaling | resistant; also recorded: insensitive
